Tested on: NCI-N87 tumors
Assay: NCI-N87 xenograft in CB17 SCID mice, Compound A alone and with lapatinib (Example 6)
Assay type: in vivo
Conditions: for Median TTE: control 26.2
Experimental: The NCI-N87 cells were harvested with 5× trypsin. Eight days after tumor implantation (on Day 1 of the study), mice with an individual tumor volume of 88-196 mm^3 were sorted into 10 groups of ten mice with a group mean tumor volume of 143-149 mm^3.
Where applicable, data is presented as mean±SEM. Each animal was euthanized when its neoplasm reached the endpoint volume (1000 mm^3), or on the last day of the study (Day 59). Time to endpoint (TTE) is calculated by the equation: TTE=(log10(endpoint volume)−b)/m, where TTE is expressed in days, endpoint volume is in mm3, b is the intercept and m is the slope of the line obtained by linear regression of a log-transformed tumor growth data set. Treatment efficacy was determined from Tumor Growth Delay (TGD), which was defined as the increase in the median time to endpoint (TTE) for a treatment group compared to the control group (TGD=T−C), expressed in days, or as a percentage of the median TTE of the control group (% TGD=((T−C)/C)×100), wherein T=median TTE for a treatment group and C=median TTE for the designated control group.
Statistical and graphical analyses was performed with Prism 3.03 (GraphPad) for Windows. For all tests, the level of significance of differences was done using ANOVA, with Bartlett's test; and a post-hoc Dunnett's multiple comparison test compared the mean change for each drub-treated group to the mean for Group 1. Survival was analyzed by the Kaplan-Meier method. The logrank test was employed to analyze the significance of the difference between the overall survival experiences of two groups, based on time to endpoint (TTE) values. The two-tailed statistical analyses were conducted at P=0.05. Prism summarizes test results as not significant (ns) at P>0.05, significant (symbolized by “*”) at 0.01<P<0.05, very significant (symbolized by “**”) at 0.001<P<0.01, and extremely significant (symbolized by “***”) at P<0.001.

[1] = Group 2 (9 animals): Compound A 12.5 mg/kg p.o. once daily
[2] = Group 2: Compound A 12.5 mg/kg p.o. once daily
[3] = Group 3 (9 animals): Compound A 25 mg/kg p.o. once daily
[4] = Group 3: Compound A 25 mg/kg p.o. once daily

Cc1nc(NC(=O)N2CCC[C@H]2C(N)=O)sc1-c1ccnc(C(C)(C)C(F)(F)F)c1 [Compound A, (S)-Pyrrolidine-1,2-dicarboxylic acid 2-amide 1-({4-methyl-5-[2-(2,2,2-trifluoro-1,1-dimethyl-ethyl)-pyridin-4-yl]-thiazol-2-yl}-amide)]
Regressions CR [1]: CR: 0
Regressions PR [1]: PR: 0,
Median TTE (Group 2 (9 animals): Compound A 12.5 mg/kg p.o. once daily, vs G1 ns): 30.4 days
% TGD [2]: 16%
T-C [2]: 4.2 days
Regressions CR [3]: CR: 0
Regressions PR [3]: PR: 0,
Median TTE (Group 3 (9 animals): Compound A 25 mg/kg p.o. once daily, vs G1 *): 43.5 days
% TGD [4]: 16%
T-C [4]: 17.3 days

Reference: patent US20200022967A1, “Use of 2-carboxamide cycloamino urea derivatives in the treatment of EGFR dependent diseases or diseases that have acquired resistance to agents that target EGFR family members” (Novartis AG, priority 2010, published 2020)
